Active and inactive are the calls of the source. Cut-off read from the data, not from the text of the source, for most assays here: actives have a measured IC50 and inactives only a lower limit.
Legend:
[1] = system: INS1; assay: protection of INS-1E cells from cytokine death, dose response, ATP luminescence, dry powder (AID 488844); format: functional, cell-based; conditions: Rattus norvegicus
[2] = system: INS1; assay: inhibitors of cytokine-induced nitrite release, dose response, cell-based, Griess absorbance, INS-1E, dry powder (AID 488866); format: functional; conditions: Rattus norvegicus
[3] = system: INS1; assay: protection from cytokine-driven beta-cell apoptosis, dose response, JC-1 fluorescence, INS-1E, dry powder, set 2 (AID 488867); format: functional, cell-based; conditions: Rattus norvegicus
[4] = system: INS1; assay: inhibitors of cytokine-induced nitrite release, dose response, cell-based, Griess absorbance, INS-1E, dry powder, set 2 (AID 488868); format: functional; conditions: Rattus norvegicus
[5] = system: INS1; assay: protection from cytokine-induced mitochondrial depolarization, dose response, cell-based, INS-1E, JC-1 fluorescence ratio, dry powder (AID 488931); format: functional; conditions: Rattus norvegicus
[6] = target: T1, Sentrin-specific protease 8 (Homo sapiens, UniProt Q96LD8); assay: SENP8 protease inhibitors, SAR follow-up, biochemical, luminescence (AID 504501); format: functional
T1 sequence (Q96LD8 whole entry): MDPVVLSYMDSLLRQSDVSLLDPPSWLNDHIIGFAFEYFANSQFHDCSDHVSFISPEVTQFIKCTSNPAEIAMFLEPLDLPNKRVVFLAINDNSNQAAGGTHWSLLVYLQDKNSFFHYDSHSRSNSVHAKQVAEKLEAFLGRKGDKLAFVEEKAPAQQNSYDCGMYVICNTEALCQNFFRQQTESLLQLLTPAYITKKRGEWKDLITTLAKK

[7] = target: T2, Caspase-3 (Homo sapiens, UniProt P42574); assay: caspase-3 inhibitors as off-family protease, SAR follow-up, selectivity assay for SENP protease inhibitor project, biochemical, luminescence, set 2 (AID 588599); format: functional
T2 sequence (P42574 whole entry): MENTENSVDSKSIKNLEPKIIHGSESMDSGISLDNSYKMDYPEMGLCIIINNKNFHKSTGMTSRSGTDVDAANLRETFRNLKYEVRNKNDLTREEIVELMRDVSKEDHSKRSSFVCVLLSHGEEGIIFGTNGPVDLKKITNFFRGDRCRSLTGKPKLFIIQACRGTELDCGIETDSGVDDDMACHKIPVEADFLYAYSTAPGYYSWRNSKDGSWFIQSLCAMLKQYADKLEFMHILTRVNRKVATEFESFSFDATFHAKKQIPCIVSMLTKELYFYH

[8] = target: T1, Sentrin-specific protease 8; assay: SENP8 protease inhibitors, SAR follow-up, biochemical, luminescence, set 2 (AID 588601); format: functional
[9] = target: T2, Caspase-3; assay: SAR Analysis of small molecule inhibitors of Sentrin-specific proteases (SENPs) using a Caspase-3 Selectivity assay. [Related pubchem assays (depositor defined):AID2540, AID2599, AID434973, AID489001]; format: functional
[10] = target: T3, Sentrin-specific protease 7 (Homo sapiens, UniProt Q9BQF6); assay: SENP7 protease inhibitors, SAR follow-up, biochemical, luminescence, set 2 (AID 588600); format: functional
T3 sequence (Q9BQF6 whole entry): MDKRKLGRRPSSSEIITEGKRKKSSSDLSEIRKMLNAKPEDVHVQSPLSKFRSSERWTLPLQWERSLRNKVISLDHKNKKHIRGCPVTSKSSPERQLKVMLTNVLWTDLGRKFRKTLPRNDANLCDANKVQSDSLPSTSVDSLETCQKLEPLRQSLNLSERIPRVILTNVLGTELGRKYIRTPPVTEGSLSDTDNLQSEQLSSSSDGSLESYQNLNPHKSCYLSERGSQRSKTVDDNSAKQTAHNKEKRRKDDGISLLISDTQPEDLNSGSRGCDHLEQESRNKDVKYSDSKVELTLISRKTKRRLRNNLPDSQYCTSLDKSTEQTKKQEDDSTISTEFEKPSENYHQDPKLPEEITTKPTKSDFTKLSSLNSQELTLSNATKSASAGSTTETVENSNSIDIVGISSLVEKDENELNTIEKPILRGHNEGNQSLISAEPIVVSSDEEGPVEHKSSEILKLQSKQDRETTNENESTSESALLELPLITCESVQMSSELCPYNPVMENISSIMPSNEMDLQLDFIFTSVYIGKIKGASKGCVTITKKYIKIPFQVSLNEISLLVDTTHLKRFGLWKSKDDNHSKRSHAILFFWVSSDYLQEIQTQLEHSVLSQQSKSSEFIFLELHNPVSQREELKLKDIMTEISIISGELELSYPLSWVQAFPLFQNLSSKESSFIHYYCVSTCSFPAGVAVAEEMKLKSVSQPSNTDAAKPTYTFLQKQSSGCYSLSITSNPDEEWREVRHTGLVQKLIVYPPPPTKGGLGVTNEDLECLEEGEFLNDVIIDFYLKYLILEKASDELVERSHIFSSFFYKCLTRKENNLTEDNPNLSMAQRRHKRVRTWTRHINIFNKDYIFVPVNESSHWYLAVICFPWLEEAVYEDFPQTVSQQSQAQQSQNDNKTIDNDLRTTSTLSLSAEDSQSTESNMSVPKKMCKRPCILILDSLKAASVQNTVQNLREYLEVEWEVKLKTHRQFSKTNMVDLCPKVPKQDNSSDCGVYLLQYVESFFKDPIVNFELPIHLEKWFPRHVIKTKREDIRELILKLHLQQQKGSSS

[11] = target: T4, Sentrin-specific protease 6 (Homo sapiens, UniProt Q9GZR1); assay: SAR Analysis of small molecule inhibitors of Sentrin-specific protease 6 (SENP6) using a Luminescent assay. [Related pubchem assays (depositor defined):AID2582, AID2599]; format: functional
T4 sequence (Q9GZR1 whole entry): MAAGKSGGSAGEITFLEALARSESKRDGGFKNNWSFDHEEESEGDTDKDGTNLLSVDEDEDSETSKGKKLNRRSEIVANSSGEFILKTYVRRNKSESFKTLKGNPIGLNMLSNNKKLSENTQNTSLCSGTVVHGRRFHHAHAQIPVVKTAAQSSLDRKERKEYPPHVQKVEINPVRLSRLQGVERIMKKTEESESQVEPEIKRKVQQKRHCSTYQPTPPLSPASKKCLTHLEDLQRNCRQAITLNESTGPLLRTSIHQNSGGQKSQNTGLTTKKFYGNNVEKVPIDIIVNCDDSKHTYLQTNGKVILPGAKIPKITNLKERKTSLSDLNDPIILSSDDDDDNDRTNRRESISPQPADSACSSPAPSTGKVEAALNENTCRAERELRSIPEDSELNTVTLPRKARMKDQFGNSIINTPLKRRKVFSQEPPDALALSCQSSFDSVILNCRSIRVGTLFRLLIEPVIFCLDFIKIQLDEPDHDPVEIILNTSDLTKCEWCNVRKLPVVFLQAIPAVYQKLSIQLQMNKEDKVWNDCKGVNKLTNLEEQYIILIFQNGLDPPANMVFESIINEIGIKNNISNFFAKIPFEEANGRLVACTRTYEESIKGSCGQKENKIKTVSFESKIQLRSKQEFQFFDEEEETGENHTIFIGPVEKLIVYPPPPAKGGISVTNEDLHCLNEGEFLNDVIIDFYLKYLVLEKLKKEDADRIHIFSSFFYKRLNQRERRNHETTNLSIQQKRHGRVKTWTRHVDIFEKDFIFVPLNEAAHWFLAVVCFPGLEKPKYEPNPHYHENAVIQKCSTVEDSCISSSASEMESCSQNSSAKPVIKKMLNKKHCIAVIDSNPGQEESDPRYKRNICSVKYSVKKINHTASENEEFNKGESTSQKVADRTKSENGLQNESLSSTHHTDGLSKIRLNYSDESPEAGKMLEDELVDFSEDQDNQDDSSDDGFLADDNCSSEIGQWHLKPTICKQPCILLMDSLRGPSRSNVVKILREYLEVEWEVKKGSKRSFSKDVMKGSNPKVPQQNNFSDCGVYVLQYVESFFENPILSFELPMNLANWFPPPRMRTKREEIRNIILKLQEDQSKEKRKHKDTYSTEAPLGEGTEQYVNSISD

[12] = target: T4, Sentrin-specific protease 6; assay: SENP6 protease inhibitors, SAR follow-up, biochemical, luminescence, set 2 (AID 588598); format: functional
[13] = target: T3, Sentrin-specific protease 7; assay: SENP7 protease inhibitors, SAR follow-up, biochemical, luminescence (AID 504497); format: functional

SMILES | AC50 [1] | AC50 [2] | AC50 [3] | AC50 [4] | AC50 [5] | IC50 [6] | IC50 [7] | IC50 [8] | IC50 [9] | IC50 [10] | IC50 [11] | IC50 [12] | IC50 [13]
C[C@@H]1CN([C@@H](C)CO)C(=O)c2cccc(NC(=O)Nc3cccc4ccccc34)c2O[C@H]1CN(C)S(=O)(=O)c1ccc(Cl)cc1 | 31.1 µM (active) | > 195 µM (inactive) | 90.1 µM (active) | 44.2 µM (active) | 41.3 µM (active) | – | – | – | – | – | – | – | –
CCCCc1ccc2nc(NC(=O)c3cccs3)sc2c1 | – | – | – | – | – | 2.1 µM (active) | 4.01 µM (active) | 2.07 µM (active) | 4.4 µM (active) | 2.22 µM (active) | 1.9 µM (active) | 2.04 µM (active) | 1.5 µM (active)
